Reference: ChEMBL document CHEMBL5291721, “A preclinical secondary pharmacology resource illuminates target-adverse drug reaction associations of marketed drugs” (Nat Commun, 2023)

What was measured:
[1] = target: D(1A) dopamine receptor (Homo sapiens, UniProt P21728)
[2] = target: Histamine H3 receptor (Homo sapiens, UniProt Q9Y5N1)
[3] = target: T1, Prostaglandin G/H synthase 1 (Homo sapiens, UniProt P23219); assay type: functional
[4] = target: T2, Alpha-2A adrenergic receptor (Homo sapiens, UniProt P08913)
T2 sequence (P08913 whole entry): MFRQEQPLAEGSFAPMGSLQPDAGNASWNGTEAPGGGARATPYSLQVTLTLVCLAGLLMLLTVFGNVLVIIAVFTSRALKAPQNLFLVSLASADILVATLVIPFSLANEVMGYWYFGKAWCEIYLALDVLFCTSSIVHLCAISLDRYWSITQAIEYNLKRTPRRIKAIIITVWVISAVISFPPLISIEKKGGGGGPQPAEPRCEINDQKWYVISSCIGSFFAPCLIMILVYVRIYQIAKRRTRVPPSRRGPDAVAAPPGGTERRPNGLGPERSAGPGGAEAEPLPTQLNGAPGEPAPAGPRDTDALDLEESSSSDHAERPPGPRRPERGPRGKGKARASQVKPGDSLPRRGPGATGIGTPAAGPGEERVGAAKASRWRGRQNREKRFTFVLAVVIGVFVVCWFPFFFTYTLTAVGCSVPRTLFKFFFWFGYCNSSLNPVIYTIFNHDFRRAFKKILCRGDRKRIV

[5] = target: Sodium-dependent noradrenaline transporter (Homo sapiens, UniProt P23975)
[6] = target: Acetylcholinesterase (Homo sapiens, UniProt P22303); assay type: functional
[7] = target: Sodium-dependent serotonin transporter (Homo sapiens, UniProt P31645)
[8] = target: D(3) dopamine receptor (Homo sapiens, UniProt P35462)
[9] = target: Mu-type opioid receptor (Homo sapiens, UniProt P35372)
[10] = target: T3, Thromboxane A2 receptor (Homo sapiens, UniProt P21731); assay type: functional, cell-based
T3 sequence (P21731 whole entry): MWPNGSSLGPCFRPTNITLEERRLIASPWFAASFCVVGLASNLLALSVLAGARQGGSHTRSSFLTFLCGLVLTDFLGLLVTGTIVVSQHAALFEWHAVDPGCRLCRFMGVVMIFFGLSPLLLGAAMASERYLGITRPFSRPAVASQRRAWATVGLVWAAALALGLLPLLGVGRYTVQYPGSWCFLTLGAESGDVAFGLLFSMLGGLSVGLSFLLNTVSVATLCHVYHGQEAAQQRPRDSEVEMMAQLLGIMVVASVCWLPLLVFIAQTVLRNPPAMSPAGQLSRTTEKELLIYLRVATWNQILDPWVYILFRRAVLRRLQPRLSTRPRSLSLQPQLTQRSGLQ

[11] = target: T1, Prostaglandin G/H synthase 1; assay type: functional; remark: listed apart in the source
[12] = target: cGMP-inhibited 3',5'-cyclic phosphodiesterase 3A (Homo sapiens, UniProt Q14432); assay type: functional
[13] = target: T3, Thromboxane A2 receptor; assay type: functional, cell-based; remark: listed apart in the source
[14] = target: T4, Estrogen receptor (Homo sapiens, UniProt P03372)
T4 sequence (P03372 whole entry): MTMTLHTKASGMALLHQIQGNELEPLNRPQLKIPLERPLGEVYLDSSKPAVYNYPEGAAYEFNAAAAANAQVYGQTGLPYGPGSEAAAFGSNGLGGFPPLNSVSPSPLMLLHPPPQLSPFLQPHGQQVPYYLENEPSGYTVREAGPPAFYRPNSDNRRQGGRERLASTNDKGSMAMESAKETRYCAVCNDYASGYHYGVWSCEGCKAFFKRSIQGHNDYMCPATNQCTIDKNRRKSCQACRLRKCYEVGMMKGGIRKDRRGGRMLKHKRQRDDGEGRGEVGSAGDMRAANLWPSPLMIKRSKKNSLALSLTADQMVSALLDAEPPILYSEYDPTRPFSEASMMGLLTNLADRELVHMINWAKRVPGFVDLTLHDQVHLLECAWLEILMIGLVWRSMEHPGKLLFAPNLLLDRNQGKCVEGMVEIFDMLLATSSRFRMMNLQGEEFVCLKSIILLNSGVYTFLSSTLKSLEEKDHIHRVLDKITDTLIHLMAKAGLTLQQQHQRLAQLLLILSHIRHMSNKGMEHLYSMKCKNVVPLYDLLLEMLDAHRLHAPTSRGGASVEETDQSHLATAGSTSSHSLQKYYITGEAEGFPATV

[15] = target: T5, Alpha-1A adrenergic receptor (Homo sapiens, UniProt P35348); assay type: functional, cell-based
T5 sequence (P35348 whole entry): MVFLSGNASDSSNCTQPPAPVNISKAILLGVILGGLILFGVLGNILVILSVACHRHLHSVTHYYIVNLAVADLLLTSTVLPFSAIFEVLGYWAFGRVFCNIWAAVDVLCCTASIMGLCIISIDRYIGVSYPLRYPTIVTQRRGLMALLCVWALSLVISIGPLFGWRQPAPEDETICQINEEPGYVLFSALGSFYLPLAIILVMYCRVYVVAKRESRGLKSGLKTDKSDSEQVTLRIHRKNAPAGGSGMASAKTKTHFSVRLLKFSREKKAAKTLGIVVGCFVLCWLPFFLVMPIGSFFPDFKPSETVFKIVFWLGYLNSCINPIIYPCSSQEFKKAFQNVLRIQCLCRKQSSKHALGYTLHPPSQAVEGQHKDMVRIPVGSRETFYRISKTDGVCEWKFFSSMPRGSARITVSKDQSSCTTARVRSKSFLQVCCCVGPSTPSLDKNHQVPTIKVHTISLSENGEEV

[16] = target: T5, Alpha-1A adrenergic receptor; assay type: functional, cell-based; remark: listed apart in the source
[17] = target: T6, Adenosine receptor A3 (Homo sapiens, UniProt P0DMS8)
T6 sequence (P0DMS8 whole entry): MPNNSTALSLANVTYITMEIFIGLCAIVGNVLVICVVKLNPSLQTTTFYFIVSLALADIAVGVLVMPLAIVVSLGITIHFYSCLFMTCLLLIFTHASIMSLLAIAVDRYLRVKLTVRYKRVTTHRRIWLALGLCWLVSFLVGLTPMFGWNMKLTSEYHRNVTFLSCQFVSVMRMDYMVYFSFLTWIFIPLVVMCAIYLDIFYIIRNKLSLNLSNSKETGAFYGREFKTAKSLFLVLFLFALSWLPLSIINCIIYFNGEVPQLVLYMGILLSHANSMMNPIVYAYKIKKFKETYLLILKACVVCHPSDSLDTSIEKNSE
Further: assay procedure not described here.

Sodium-dependent serotonin transporter, sequence (P31645 whole entry): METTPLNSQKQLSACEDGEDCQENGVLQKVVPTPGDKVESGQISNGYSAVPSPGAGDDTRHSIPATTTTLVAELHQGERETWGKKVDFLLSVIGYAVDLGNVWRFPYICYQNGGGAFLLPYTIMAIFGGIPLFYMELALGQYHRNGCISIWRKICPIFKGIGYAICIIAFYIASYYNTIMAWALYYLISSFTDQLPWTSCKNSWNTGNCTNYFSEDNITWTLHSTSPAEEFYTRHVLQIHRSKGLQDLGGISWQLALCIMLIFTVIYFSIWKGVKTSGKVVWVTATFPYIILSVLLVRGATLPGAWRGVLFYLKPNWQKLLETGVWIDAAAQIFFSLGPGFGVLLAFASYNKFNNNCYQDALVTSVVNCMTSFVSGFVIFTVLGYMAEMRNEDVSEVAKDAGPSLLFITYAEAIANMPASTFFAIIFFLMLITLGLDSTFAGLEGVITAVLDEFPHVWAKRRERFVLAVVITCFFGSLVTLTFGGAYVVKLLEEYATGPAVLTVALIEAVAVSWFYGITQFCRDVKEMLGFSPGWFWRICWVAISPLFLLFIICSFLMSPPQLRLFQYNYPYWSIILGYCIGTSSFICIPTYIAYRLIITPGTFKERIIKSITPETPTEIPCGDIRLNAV
D(1A) dopamine receptor, sequence (P21728 whole entry): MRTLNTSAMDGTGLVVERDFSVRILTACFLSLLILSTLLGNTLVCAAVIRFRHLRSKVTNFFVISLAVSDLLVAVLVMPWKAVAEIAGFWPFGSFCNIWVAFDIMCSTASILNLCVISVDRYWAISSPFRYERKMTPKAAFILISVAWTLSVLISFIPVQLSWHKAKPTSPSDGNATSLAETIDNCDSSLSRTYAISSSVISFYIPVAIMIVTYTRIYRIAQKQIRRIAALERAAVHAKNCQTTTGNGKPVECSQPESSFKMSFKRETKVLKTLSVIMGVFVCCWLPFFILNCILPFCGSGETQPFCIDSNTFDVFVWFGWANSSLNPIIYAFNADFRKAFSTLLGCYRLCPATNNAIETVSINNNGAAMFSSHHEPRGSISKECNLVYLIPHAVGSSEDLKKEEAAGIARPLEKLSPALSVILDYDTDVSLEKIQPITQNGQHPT
Histamine H3 receptor, sequence (Q9Y5N1 whole entry): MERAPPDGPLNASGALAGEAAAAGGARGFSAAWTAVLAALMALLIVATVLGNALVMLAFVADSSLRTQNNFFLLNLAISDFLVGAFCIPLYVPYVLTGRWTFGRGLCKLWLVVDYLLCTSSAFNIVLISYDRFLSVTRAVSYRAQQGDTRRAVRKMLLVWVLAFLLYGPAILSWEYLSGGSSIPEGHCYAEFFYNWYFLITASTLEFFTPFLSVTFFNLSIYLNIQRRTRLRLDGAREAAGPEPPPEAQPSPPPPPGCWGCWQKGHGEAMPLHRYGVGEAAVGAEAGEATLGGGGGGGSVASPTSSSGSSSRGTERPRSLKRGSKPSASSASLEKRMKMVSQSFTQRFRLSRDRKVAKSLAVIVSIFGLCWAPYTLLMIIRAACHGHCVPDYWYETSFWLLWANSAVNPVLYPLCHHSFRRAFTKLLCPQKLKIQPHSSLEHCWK
T1 sequence (P23219 whole entry): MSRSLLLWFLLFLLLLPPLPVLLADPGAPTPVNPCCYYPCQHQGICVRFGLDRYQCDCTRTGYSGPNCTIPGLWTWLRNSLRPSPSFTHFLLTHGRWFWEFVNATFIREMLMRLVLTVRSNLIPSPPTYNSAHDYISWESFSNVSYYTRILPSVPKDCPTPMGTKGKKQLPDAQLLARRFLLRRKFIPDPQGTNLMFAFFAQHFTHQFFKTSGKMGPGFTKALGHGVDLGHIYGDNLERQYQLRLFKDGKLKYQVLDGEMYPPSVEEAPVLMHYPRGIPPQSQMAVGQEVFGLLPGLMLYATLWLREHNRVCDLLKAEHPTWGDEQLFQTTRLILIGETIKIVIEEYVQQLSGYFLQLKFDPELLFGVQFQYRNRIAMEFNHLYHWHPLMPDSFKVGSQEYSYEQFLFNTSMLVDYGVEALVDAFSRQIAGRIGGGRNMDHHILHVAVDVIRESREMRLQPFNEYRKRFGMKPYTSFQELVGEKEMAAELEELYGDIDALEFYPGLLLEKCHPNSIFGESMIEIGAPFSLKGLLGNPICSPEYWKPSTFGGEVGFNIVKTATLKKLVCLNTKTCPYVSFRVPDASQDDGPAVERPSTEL
Acetylcholinesterase, sequence (P22303 whole entry): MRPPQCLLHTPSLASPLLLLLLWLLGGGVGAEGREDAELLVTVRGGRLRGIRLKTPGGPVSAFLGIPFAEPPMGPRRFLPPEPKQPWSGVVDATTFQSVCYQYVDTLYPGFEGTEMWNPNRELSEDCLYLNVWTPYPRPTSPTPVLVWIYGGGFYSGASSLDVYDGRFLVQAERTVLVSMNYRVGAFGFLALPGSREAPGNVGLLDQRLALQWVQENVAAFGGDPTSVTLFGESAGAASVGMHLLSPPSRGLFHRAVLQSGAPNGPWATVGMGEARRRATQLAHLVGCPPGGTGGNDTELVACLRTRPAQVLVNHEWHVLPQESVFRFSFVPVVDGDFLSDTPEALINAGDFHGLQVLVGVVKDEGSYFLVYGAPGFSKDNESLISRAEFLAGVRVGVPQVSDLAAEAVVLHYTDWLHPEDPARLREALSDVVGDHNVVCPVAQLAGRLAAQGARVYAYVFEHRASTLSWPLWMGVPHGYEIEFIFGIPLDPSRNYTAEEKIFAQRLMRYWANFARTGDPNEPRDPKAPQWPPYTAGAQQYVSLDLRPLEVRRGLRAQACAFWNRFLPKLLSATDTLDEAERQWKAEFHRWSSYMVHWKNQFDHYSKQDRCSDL
cGMP-inhibited 3',5'-cyclic phosphodiesterase 3A, sequence (Q14432 whole entry): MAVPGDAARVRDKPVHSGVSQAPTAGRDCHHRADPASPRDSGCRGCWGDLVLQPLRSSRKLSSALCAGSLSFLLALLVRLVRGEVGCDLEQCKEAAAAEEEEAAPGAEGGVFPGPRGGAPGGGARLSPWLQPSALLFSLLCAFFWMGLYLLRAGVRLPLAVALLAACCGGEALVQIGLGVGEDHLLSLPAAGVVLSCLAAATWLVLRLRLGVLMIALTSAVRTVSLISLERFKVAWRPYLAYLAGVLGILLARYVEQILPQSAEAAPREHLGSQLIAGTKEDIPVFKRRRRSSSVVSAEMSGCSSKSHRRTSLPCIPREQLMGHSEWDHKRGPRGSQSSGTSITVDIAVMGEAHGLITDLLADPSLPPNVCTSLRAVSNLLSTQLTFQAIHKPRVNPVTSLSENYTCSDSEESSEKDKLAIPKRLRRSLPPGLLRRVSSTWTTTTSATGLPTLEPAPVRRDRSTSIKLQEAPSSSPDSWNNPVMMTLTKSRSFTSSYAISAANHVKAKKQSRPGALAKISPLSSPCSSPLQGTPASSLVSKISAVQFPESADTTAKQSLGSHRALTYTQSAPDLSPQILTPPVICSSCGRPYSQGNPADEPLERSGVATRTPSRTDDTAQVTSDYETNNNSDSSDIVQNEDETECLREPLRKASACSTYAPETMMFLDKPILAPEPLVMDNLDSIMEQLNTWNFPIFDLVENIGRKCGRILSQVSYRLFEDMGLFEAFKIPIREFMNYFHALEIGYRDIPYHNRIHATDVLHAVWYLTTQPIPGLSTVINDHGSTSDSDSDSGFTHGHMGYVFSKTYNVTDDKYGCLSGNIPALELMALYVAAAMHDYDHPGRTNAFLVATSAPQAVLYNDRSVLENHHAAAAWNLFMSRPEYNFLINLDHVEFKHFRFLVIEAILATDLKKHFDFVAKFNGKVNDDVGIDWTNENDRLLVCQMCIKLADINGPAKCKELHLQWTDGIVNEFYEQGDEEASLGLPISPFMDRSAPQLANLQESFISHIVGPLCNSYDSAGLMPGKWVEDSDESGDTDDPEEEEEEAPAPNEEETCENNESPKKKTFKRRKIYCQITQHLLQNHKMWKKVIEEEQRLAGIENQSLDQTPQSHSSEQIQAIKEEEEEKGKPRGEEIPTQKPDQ
Mu-type opioid receptor, sequence (P35372 whole entry): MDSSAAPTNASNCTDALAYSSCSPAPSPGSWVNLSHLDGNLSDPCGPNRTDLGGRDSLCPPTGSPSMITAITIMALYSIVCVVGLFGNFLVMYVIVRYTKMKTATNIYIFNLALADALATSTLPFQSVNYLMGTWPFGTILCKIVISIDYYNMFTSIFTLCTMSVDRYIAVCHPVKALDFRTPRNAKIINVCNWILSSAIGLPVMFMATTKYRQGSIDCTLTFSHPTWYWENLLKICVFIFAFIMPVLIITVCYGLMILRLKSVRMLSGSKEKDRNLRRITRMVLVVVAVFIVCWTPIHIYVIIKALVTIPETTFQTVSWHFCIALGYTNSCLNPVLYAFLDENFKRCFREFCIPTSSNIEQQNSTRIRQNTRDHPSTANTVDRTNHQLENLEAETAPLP
D(3) dopamine receptor, sequence (P35462 whole entry): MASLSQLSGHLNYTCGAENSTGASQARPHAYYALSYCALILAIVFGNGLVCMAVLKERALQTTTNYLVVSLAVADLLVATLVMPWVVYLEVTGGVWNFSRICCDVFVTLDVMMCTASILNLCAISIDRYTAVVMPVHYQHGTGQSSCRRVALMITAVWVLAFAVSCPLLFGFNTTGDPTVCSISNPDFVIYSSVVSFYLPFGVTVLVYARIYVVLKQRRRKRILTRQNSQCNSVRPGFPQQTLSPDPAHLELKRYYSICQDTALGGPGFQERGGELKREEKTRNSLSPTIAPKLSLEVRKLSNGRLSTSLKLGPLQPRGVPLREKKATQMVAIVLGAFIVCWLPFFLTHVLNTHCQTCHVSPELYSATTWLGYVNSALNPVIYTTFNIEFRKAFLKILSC

Structure (SMILES) | AC50 [1] | AC50 [2] | AC50 [3] | AC50 [4] | AC50 [5] | AC50 [6] | AC50 [7] | AC50 [8] | AC50 [9] | AC50 [10] | AC50 [11] | AC50 [12] | AC50 [13] | AC50 [14] | AC50 [15] | AC50 [16] | AC50 [17]
CCCCCCCC(=O)N[C@H](CN1CCCC1)[C@H](O)c1ccc2c(c1)OCCO2 | > 30 µM | > 30 µM | 26.5 µM | > 30 µM | > 30 µM | > 30 µM | > 30 µM | > 30 µM | 14.1 µM | > 30 µM | 10.1 µM | > 30 µM | > 30 µM | > 30 µM |  |  | 
C[C@]1(COc2ccc(N3CCC(Oc4ccc(OC(F)(F)F)cc4)CC3)cc2)Cn2cc([N+](=O)[O-])nc2O1 | > 30 µM | > 30 µM | > 30 µM | > 30 µM | 12.9 µM | > 30 µM | 2.02 µM | > 30 µM | > 30 µM | > 30 µM | 27.9 µM | > 30 µM | > 30 µM | > 30 µM | > 30 µM | > 30 µM | 
CC(=O)OC(C)OC(=O)C(C)c1ccc(-c2ccccc2)c(F)c1 (centres undefined) | > 30 µM | > 30 µM | 0.0212 µM | > 30 µM | > 30 µM | > 30 µM | > 30 µM | > 30 µM | > 30 µM | > 30 µM | 0.0309 µM | > 30 µM | > 30 µM | > 30 µM | > 30 µM | > 30 µM | > 30 µM
O=C(Nc1nc(-c2cc(Cl)cs2)c(N2CCN(C3CCCCC3)CC2)s1)c1cnc(N2CCC(C(=O)O)CC2)c(Cl)c1 [AVATROMBOPAG] | > 30 µM | > 30 µM | 19.8 µM | > 30 µM | > 30 µM | > 30 µM | > 30 µM | > 30 µM | > 30 µM | > 30 µM | > 30 µM | > 30 µM | > 10 µM | > 30 µM |  |  | 
CO/N=C(\C(=O)N[C@@H]1C(=O)N2C(C(=O)[O-])=C(C[n+]3cccc4c3CCC4)CS[C@H]12)c1csc(N)n1 [CEFPIROME] | > 30 µM | > 30 µM | > 30 µM | > 30 µM | > 30 µM | > 30 µM | > 30 µM | > 30 µM | > 30 µM | > 30 µM | > 30 µM | > 30 µM | > 30 µM | > 30 µM | > 30 µM | > 30 µM | 
Cc1cc(CCN2CCN(c3cccc(Cl)c3)CC2)n[nH]1 [MEPIPRAZOLE] | 0.591 µM | > 30 µM | > 30 µM | 4.52 µM | > 30 µM | > 30 µM | 3.8 µM | 0.0358 µM | 15.7 µM | > 30 µM | > 30 µM | > 30 µM | > 30 µM | > 30 µM | 0.43 µM |  | > 30 µM
CCC(=O)O[C@@H]1CC(=O)O[C@H](C)C/C=C/C=C/[C@H](OC(C)=O)[C@H](C)C[C@H](CC=O)[C@H](O[C@@H]2O[C@H](C)[C@@H](O[C@H]3C[C@@](C)(OC(C)=O)[C@@H](OC(=O)CC)[C@H](C)O3)[C@H](N(C)C)[C@H]2O)[C@H]1OC [MIOCAMYCIN] | > 30 µM | > 30 µM | > 30 µM | > 30 µM | > 30 µM | > 30 µM | > 30 µM | > 30 µM | > 30 µM | > 30 µM | > 30 µM | > 30 µM | > 30 µM | > 30 µM |  |  | 
CCN(CC)CCOC(=O)C(Cc1cccc2ccccc12)CC1CCCO1 (centres undefined) [NAFRONYL] | 23.5 µM | > 30 µM | > 30 µM | > 30 µM | > 30 µM | > 30 µM | 28.4 µM | 10.1 µM | 7.16 µM | > 30 µM | > 30 µM | > 30 µM | > 30 µM |  | > 30 µM | > 30 µM | > 30 µM
c1ccc2c(CC3=NCCN3)cccc2c1 [NAPHAZOLINE] | > 30 µM | > 30 µM | > 30 µM | 0.022 µM | > 30 µM | > 30 µM | > 30 µM |  | 8.37 µM | > 30 µM | > 30 µM | > 30 µM | > 30 µM | > 30 µM | 0.0014 µM |  | > 30 µM
CO[C@H]1/C=C/O[C@@]2(C)Oc3c(C)c(O)c4c(O)c(cc(O)c4c3C2=O)NC(=O)/C(C)=C\C=C\[C@H](C)[C@H](O)[C@@H](C)[C@@H](O)[C@@H](C)[C@H](OC(C)=O)[C@@H]1C [RIFAMYCIN] | > 30 µM | > 30 µM | 28.7 µM | > 30 µM | > 30 µM | > 30 µM | > 30 µM | > 30 µM | > 30 µM | 8.77 µM | > 30 µM | > 30 µM |  | > 30 µM | 8.13 µM |  | > 30 µM
CCSc1ccc2c(c1)N(CCCN1CCN(C)CC1)c1ccccc1S2 [THIETHYLPERAZINE] | 0.0079 µM | 13 µM | 26.5 µM | 0.211 µM | 1.65 µM | > 30 µM | 4.88 µM | 0.0031 µM | 2.69 µM | > 30 µM | > 0.3 µM | > 30 µM | 3.98 µM | > 30 µM | 24.7 µM |  | 6.62 µM
